The values below are quoted from earlier work in patent US20050187172A1, “Combination of a Cox-2 inhibitor and a DNA topoisomerase I inhibitor for treatment of neoplasia” (priority 2003, published 2005).

Structures can show the parent of a compound that is named as a salt. Where two headings read alike, the source gives them in different places.

For series [1] the following is noted: for Toxicity (reported toxic effects): Table 3, Toxicity column.
For series [2] the following is noted: mice, single IV infusion.
Assay in series [3]: not given
This is another data set of the same source.

The mark [4] stands for this setting: Grade 2 or higher toxic effects.
The mark [5] stands for this setting: dose limiting hematological toxicity.

For `CC[C@@]1(O)C(=O)OCc2c1cc1n(c2=O)Cc2c-1nc1cc3c(cc1c2CN1CCN(C)CC1)OCCO3` [GG211], the “Dose limiting toxicity (DLT)” value in series [1] (in vivo) is recorded as “Hematologic toxicity”.
Take `CCc1c2c(nc3ccc(OC(=O)N4CCC(N5CCCCC5)CC4)cc13)-c1cc3c(c(=O)n1C2)COC(=O)[C@]3(O)CC` [Irinotecan]: the “Toxicity (reported toxic effects)” value in series [1] was “Diarrhea and myelosup-”.
Take `CC[C@@]1(O)C(=O)OCc2c1cc1n(c2=O)Cc2cc3c(CN(C)C)c(O)ccc3nc2-1` [Topotecan, 1H-Pyrano[3′,4′:6,7]indolizino[1,2-b]quinoline-3,14(4,H,12H)-dione, 10-[(dimethylamino)methyl]-4-ethyl-4,9-dihydroxy-, (S)-]: the “Dose limiting toxicity (DLT)” value in series [1] (in vivo) was “Myelosup-pression dose-”. The Maximally tolerated dose entry in series [1] (× 5 d every 3 to 4 wk) was “dose: 1.5 mg/m^2 × 5 d”.
Consider `CCc1c2c(nc3ccc(OC(=O)N4CCC(N5CCCCC5)CC4)cc13)-c1cc3c(c(=O)n1C2)COC(=O)[C@]3(O)CC` [Irinotecan hydrochloride, (4S)-4,11-diethyl-4-hydroxy-9-((4-piperidinopiperidino)carbonyloxy)-1H-pyrano(3′,4′:6,7)indolizino(1,2-b)quinoline-3,14(4H,12H)dione hydrochloride.], for which the Lethality in mice result is “Lethality in mice: 111 mg/kg”.
As for `CN(C)CCNC(=O)c1cccc2cc3ccccc3nc12.Cl.Cl` [XR-5000, 4-Acridinecarboxamide, N-[2-(dimethylamino)ethyl]-, dihydrochloride], in series [1], the “Toxicity (reported toxic effects)” value is on record as “infusion-related arm pain”.
With `CC[C@@]1(O)C(=O)OCc2c1cc1n(c2=O)Cc2cc3c(N)cccc3nc2-1` [9-aminocamptothecin, 1H-Pyrano[3′,4′:6,7]indolizino[1,2-b]quinoline-3,14(4H,12H)-dione, 10-amino-4-ethyl-4-hydroxy-, (S)-], in series [1] (in vivo), the “Dose limiting toxicity (DLT)” value was “neutropenia” and the Maximum tolerated dose is on record as 45 mug/square mug/square metre/hr.
In the case of `O=C1c2c(c3c4ccc(O)cc4n([C@@H]4O[C@H](CO)[C@@H](O)[C@H](O)[C@H]4O)c3c3[nH]c4cc(O)ccc4c23)C(=O)N1NC(CO)CO` [J 107088, 5H-Indolo[2,3-a]pyrrolo[3,4-c]carbazole-5,7(6H)-dione, 12-β-D-glucopyranosyl-12,13-dihydro-2,10-dihydroxy-6-[[2-hydroxy-1-(hydroxymethyl)ethyl]amino]-], the Maximum tolerated dose entry in series [1] (in vivo) is “dose: 7.5 mg/m2”.
In the case of `CC[C@@]1(O)C(=O)OCc2c1cc1n(c2=O)Cc2cc3c(CN(C)C)c(O)ccc3nc2-1` [Topotecan hydrochloride, (S)-10-((dimethylamino)methyl)-4-ethyl-4,9-dihydroxy-1H-pyrano (3′,4′:6,7)indolizino(1,2-B)quinoline-3,14-(4H,12H)-dione monohydrochloride], the LD10 entry in series [2] is on record as “pression. LD10: mice 75 mg/m^2”. Further, the “Dose limiting toxicity (DLT)” value in series [1] (in vivo) is listed as “DLT: Bone marrow sup-”.
With `CC[C@@]1(O)C(=O)OCc2c1cc1n(c2=O)Cc2cc3c([N+](=O)[O-])cccc3nc2-1` [rubitecan, 1H-Pyrano[3′,4′:6,7]indolizino[1,2-b]quinoline-3,14(4H,12H)-dione, -4-ethyl-4-hydroxy-10-nitro-, (S)-], in series [3] (setting [4]), the chemical cystitis entry is “cystitis (25%),”; the diarrhea result is “diarrhea (32%), chemical”; the neutropenic sepsis result is “(21%), and weight loss”; the weight loss entry is “(18%)”. For the same compound, in series [3] (setting [5]), the “grade 4 anemia, share of patients” value was “grade 4 anemia in 29%” and the “thrombocytopenia (grade 4), share of patients” value was 18%. Grade 2 or higher. Moreover, the Maximum tolerated dose entry in series [1] (over five consecutive days repeated every week) was “dose: 1.5 mg/m2/day”.
